Values of other authors in US20240226016A1, “STARCH BASED PRINTABLE MATERIALS” (ROQUETTE FRERES, priority 2021, published 2024).

For `Cn1c(=O)c2c(ncn2CC(O)CO)n(C)c1=O` (stereo not shown) [diprophylline], the “solubility in water (class)” value is given as “freely soluble in water”.
